Data on 24 compounds can be found in patent publication US20180148418A1, “AMIDO-SUBSTITUTED CYCLOHEXANE DERIVATIVES” (Bayer Pharma Aktiengesellschaft, priority 2015, published 2018).

As usually defined, the IC50 is the concentration that gives 50% inhibition.

This assay concerns the target T1, TNKS1 (Homo sapiens, UniProt O95271).
T1 construct: purchased BPS Bioscience, San Diego, USA 80579 (TNKS1 Histone Ribosylation Assay Kit)
T1 sequence (O95271 1-1327): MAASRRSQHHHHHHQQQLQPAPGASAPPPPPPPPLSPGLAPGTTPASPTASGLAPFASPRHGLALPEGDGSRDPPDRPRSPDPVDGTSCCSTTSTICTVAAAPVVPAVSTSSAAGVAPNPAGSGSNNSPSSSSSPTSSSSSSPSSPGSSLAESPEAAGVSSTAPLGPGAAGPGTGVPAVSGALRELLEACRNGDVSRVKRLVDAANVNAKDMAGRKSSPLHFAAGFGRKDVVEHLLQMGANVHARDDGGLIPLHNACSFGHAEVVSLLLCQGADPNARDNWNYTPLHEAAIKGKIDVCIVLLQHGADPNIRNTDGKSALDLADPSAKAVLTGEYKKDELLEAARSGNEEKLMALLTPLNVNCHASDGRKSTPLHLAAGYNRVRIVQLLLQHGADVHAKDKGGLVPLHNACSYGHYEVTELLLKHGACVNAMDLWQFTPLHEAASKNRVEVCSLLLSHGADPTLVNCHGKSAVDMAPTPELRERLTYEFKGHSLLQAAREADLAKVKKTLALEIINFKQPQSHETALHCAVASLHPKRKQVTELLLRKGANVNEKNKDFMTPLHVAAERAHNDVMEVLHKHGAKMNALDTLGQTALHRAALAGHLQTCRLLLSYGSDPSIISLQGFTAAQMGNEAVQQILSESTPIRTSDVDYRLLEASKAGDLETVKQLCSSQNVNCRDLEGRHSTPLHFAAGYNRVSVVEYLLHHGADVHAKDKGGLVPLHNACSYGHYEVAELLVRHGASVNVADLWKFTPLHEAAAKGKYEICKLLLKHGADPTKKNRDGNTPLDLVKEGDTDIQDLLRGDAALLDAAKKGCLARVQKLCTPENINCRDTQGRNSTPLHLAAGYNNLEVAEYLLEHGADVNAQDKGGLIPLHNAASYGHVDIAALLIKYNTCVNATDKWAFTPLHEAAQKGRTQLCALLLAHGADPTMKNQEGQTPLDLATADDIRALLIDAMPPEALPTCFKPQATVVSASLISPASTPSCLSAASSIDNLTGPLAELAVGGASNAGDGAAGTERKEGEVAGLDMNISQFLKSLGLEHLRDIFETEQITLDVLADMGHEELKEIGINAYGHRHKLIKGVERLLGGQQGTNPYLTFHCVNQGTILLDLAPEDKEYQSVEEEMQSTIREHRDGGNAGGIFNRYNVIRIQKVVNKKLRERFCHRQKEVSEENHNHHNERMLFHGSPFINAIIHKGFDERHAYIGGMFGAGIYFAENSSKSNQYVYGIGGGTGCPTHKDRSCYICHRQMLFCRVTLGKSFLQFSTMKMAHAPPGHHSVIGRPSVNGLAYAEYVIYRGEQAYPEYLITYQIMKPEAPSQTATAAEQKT
The experiment in a line: TNKS1 Assay B (auto-parsylation, [3H]-NAD+ SPA). It is filed as biochemical. The settings on record: 6 nM TNKS1, auto-parsylation, over night at room temperature.

The structures appear in SMILES notation.

The compound `O=C(NC12CCC(C(=O)Nc3c(F)cc(F)cc3Cl)(CC1)CC2)c1cnc2cccnn12` [Example 123, N-{4-[(2-chloro-4,6-difluorophenyl)carbamoyl]bicyclo[2.2.2]oct-1-yl}imidazo[1,2-b]pyridazine-3-carboxamide] gave an IC50 of 1000 nM.

Compound `O=C(NC12CCC(C(=O)Nc3cnccc3Cl)(CC1)CC2)c1cnc2cccnn12` [Example 124, N-{4-[(4-chloropyridin-3-yl)carbamoyl]bicyclo[2.2.2]oct-1-yl}imidazo[1,2-b]pyridazine-3-carboxamide] registered an IC50 of 230 nM.

`Cc1cc(C)n2ncc(C(=O)NC34CCC(C(=O)Nc5ccc(F)cc5Cl)(CC3)CC4)c2n1` [Example 125, N-{4-[(2-chloro-4-fluorophenyl)carbamoyl]bicyclo[2.2.2]oct-1-yl}-5,7-dimethylpyrazolo[1,5-a]pyrimidine-3-carboxamide] yielded an IC50 of 120 nM.

`Cc1cc(C)n2ncc(C(=O)NC34CCC(C(=O)Nc5cc(C)c(F)cc5Cl)(CC3)CC4)c2n1` [Example 126, N-{4-[(2-chloro-4-fluoro-5-methylphenyl)carbamoyl]bicyclo[2.2.2]oct-1-yl}-5,7-dimethylpyrazolo[1,5-a]pyrimidine-3-carboxamide] came in with an IC50 of 82 nM. This IC50 and that of the compound before are within 1.5-fold of each other.

Regarding `Cc1cc(C)n2ncc(C(=O)NC34CCC(C(=O)Nc5c(F)cc(F)cc5Cl)(CC3)CC4)c2n1` [Example 127, N-{4-[(2-chloro-4,6-difluorophenyl)carbamoyl]bicyclo[2.2.2]oct-1-yl}-5,7-dimethylpyrazolo[1,5-a]pyrimidine-3-carboxamide], half-maximal inhibition (IC50) was put at 320 nM.

For `Cc1cc(C)n2ncc(C(=O)NC34CCC(C(=O)Nc5cnccc5Cl)(CC3)CC4)c2n1` [Example 128, N-{4-[(4-chloropyridin-3-yl)carbamoyl]bicyclo[2.2.2]oct-1-yl}-5,7-dimethylpyrazolo[1,5-a]pyrimidine-3-carboxamide], the midpoint of inhibition, the IC50, lay at 88 nM.

`O=C(NCC1CCCO1)c1nc[nH]c1C(=O)N[C@H]1CC[C@H](C(=O)Nc2cc(F)ccc2Cl)CC1` (stereo partly drawn) [Example 129, N^5-{trans-4-[(2-chloro-5-fluorophenyl)carbamoyl]cyclohexyl}-N^4-(tetrahydrofuran-2-ylmethyl)-1H-imidazole-4,5-dicarboxamide] returned an IC50 of 45 nM.

Regarding `O=C(N[C@H]1CC[C@H](C(=O)Nc2cc(F)c(F)cc2Cl)CC1)c1cnn2cccnc12` [Example 130, N-{trans-4-[(2-chloro-4,5-difluorophenyl)carbamoyl]cyclohexyl}pyrazolo[1,5-a]pyrimidine-3-carboxamide], the IC50 was 34 nM.

Take `O=C(N[C@H]1CC[C@H](C(=O)Nc2cc(F)c(F)cc2Cl)CC1)c1cnc2cccnn12` [Example 132, N-{trans-4-[(2-chloro-4,5-difluorophenyl)carbamoyl]cyclohexyl}imidazo[1,2-b]pyridazine-3-carboxamide]: the IC50 worked out at 64 nM.

In turn, `O=C(N[C@H]1CC[C@H](C(=O)Nc2c(F)cc(F)cc2Cl)CC1)c1cnc2cccnn12` [Example 133, N-{trans-4-[(2-chloro-4,6-difluorophenyl)carbamoyl]cyclohexyl}imidazo[1,2-b]pyridazine-3-carboxamide] displayed an IC50 of 140 nM.

`Cc1cc(C)n2ncc(C(=O)N[C@H]3CC[C@H](C(=O)Nc4cc(F)c(F)cc4Cl)CC3)c2n1` [Example 134, N-{trans-4-[(2-chloro-4,5-difluorophenyl)carbamoyl]cyclohexyl}-5,7-dimethylpyrazolo[1,5-a]pyrimidine-3-carboxamide] returned an IC50 of 74 nM.

Compound `Cc1cc(C)n2ncc(C(=O)N[C@H]3CC[C@H](C(=O)Nc4c(F)cc(F)cc4Cl)CC3)c2n1` [Example 135, N-{trans-4-[(2-chloro-4,6-difluorophenyl)carbamoyl]cyclohexyl}-5,7-dimethylpyrazolo[1,5-a]pyrimidine-3-carboxamide] showed an IC50 of 48 nM.

With `O=C(N[C@H]1CC[C@@]2(CCN(c3ccc(F)cc3Cl)C2=O)CC1)c1cnn2cccnc12` [Example 136, N-[(trans)-2-(2-chloro-4-fluorophenyl)-1-oxo-2-azaspiro[4.5]dec-8-yl]pyrazolo[1,5-a]pyrimidine-3-carboxamide], the midpoint of inhibition, the IC50, lay at 13 nM.

`Cc1cnc2c(C(=O)N[C@H]3CC[C@@]4(CCN(c5ccc(F)cc5Cl)C4=O)CC3)cnn2c1` [Example 137, N-[(trans)-2-(2-chloro-4-fluorophenyl)-1-oxo-2-azaspiro[4.5]dec-8-yl]-6-methylpyrazolo[1,5-a]pyrimidine-3-carboxamide] gave an IC50 of 11 nM.

As to `O=C(N[C@H]1CC[C@@]2(CCN(c3ccc(F)cc3Cl)C2=O)CC1)c1cnc2cccnn12` [Example 138, N-[(trans)-2-(2-chloro-4-fluorophenyl)-1-oxo-2-azaspiro[4.5]dec-8-yl]imidazo[1,2-b]pyridazine-3-carboxamide], the IC50 came to 22 nM.

In turn, `Cc1cc(C)n2ncc(C(=O)N[C@H]3CC[C@@]4(CCN(c5ccc(F)cc5Cl)C4=O)CC3)c2n1` [Example 139, N-[(trans)-2-(2-chloro-4-fluorophenyl)-1-oxo-2-azaspiro[4.5]dec-8-yl]-5,7-dimethylpyrazolo[1,5-a]pyrimidine-3-carboxamide] showed an IC50 of 11 nM.

As to `CNC(=O)c1[nH]cnc1C(=O)N[C@H]1CC[C@@]2(CCN(c3ccc(F)cc3Cl)C2=O)CC1` [Example 140, N^4-[(trans)-2-(2-chloro-4-fluorophenyl)-1-oxo-2-azaspiro[4.5]dec-8-yl]-N^5-methyl-1H-imidazole-4,5-dicarboxamide], the IC50 worked out at 12 nM.

Regarding `CCNC(=O)c1[nH]cnc1C(=O)N[C@H]1CC[C@@]2(CCN(c3ccc(F)cc3Cl)C2=O)CC1` [Example 141, N^4-[(trans)-2-(2-chloro-4-fluorophenyl)-1-oxo-2-azaspiro[4.5]dec-8-yl]-N^5-ethyl-1H-imidazole-4,5-dicarboxamide], the IC50 worked out at 11 nM.

`CNC(=O)c1nc[nH]c1C(=O)N[C@H]1CC[C@H](C(=O)Nc2cc(C(F)(F)F)ccc2Cl)CC1` [Example 142, N^5-(trans-4-{[2-chloro-5-(trifluoromethyl)phenyl]carbamoyl}cyclohexyl)-N^4-methyl-1H-imidazole-4,5-dicarboxamide] gave an IC50 of 93 nM.

`COCC(C)NC(=O)c1nc[nH]c1C(=O)N[C@H]1CC[C@H](C(=O)Nc2cc(C(F)(F)F)ccc2Cl)CC1` (stereo partly drawn) [Example 143, N^5-(trans-4-{[2-chloro-5-(trifluoromethyl)phenyl]carbamoyl}cyclohexyl)-N^4-(1-methoxypropan-2-yl)-1H-imidazole-4,5-dicarboxamide]: the IC50 was found to be 210 nM.

Compound `COC(C)(C)CNC(=O)c1nc[nH]c1C(=O)N[C@H]1CC[C@H](C(=O)Nc2cc(C(F)(F)F)ccc2Cl)CC1` [Example 144, N^5-(trans-4-{[2-chloro-5-(trifluoromethyl)phenyl]carbamoyl}cyclohexyl)-N^4-(2-methoxy-2-methylpropyl)-1H-imidazole-4,5-dicarboxamide] had an IC50 of 190 nM.

The compound `CC(C)(O)CNC(=O)c1nc[nH]c1C(=O)N[C@H]1CC[C@H](C(=O)Nc2cc(C(F)(F)F)ccc2Cl)CC1` [Example 145, N^5-(trans-4-{[2-chloro-5-(trifluoromethyl)phenyl]carbamoyl}cyclohexyl)-N^4-(2-hydroxy-2-methylpropyl)-1H-imidazole-4,5-dicarboxamide] returned an IC50 of 330 nM.

`O=C(NCC1CCCO1)c1nc[nH]c1C(=O)N[C@H]1CC[C@H](C(=O)Nc2cc(C(F)(F)F)ccc2Cl)CC1` (stereo partly drawn) [Example 146, N^5-(trans-4-{[2-chloro-5-(trifluoromethyl)phenyl]carbamoyl}cyclohexyl)-N^4-(tetrahydrofuran-2-ylmethyl)-1H-imidazole-4,5-dicarboxamide] gave an IC50 of 150 nM.

`CNC(=O)c1nc[nH]c1C(=O)N[C@H]1CC[C@H](C(=O)Nc2ncncc2Cl)CC1` [Example 147, N^5-{trans-4-[(5-chloropyrimidin-4-yl)carbamoyl]cyclohexyl}-N^4-methyl-1H-imidazole-4,5-dicarboxamide] came in with an IC50 of 150 nM.
